Data as given in PubChem BioAssay (NCI).
“And” between values parts separate entries of the source, which are not always exact repeats. Equal values may be shown once.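 A five-concentration, 48-hour dose response in 96-well plates underlies each endpoint, interpolated linearly between surrounding concentrations. GI50: concentration for 50% inhibition of growth. TGI: concentration producing complete growth inhibition.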

Columns and labels:
Assay in all cases: NCI-60 cell line screen, 48 h
SF-268 CNS = system: SF-268 CNS
SK-MEL-28 melanoma = system: SK-MEL-28 melanoma
SK-MEL-5 melanoma = system: SK-MEL-5 melanoma
SK-OV-3 ovarian = system: SK-OV-3 ovarian
SW-620 colon = system: SW-620 colon
UO-31 renal = system: UO-31 renal
NCI-H226 lung = system: NCI-H226 lung
DU-145 prostate = system: DU-145 prostate
MCF7 breast = system: MCF7 breast
MDA-MB-231 breast = system: MDA-MB-231 breast

| SMILES | TGI (SF-268 CNS) | TGI (SK-MEL-28 melanoma) | TGI (SK-MEL-5 melanoma) [µM] | TGI (SK-OV-3 ovarian) | TGI (SW-620 colon) [µM] | TGI (UO-31 renal) | TGI (NCI-H226 lung) [µM] | GI50 (DU-145 prostate) [µM] | TGI (DU-145 prostate) [µM] | GI50 (MCF7 breast) [µM] | TGI (MCF7 breast) [µM] | GI50 (MDA-MB-231 breast) [µM] | TGI (MDA-MB-231 breast) [µM] | GI50 (NCI-H226 lung) [µM] | GI50 (SF-268 CNS) [µM] | GI50 (SK-MEL-28 melanoma) [µM] | GI50 (SK-MEL-5 melanoma) [µM] | GI50 (SK-OV-3 ovarian) [µM] | GI50 (SW-620 colon) [µM] | GI50 (UO-31 renal) [µM] |
| --- | --- | --- | --- | --- | --- | --- | --- | --- | --- | --- | --- | --- | --- | --- | --- | --- | --- | --- | --- | --- |
| O=C1NC2(CCCCCC2)C2CCCCCCC12O (stereo unspecified) | > 100 µM | > 100 µM | > 100 | > 100 µM | > 100 | > 100 µM | – | – | – | – | – | – | – | – | – | – | – | – | – | – |
| Cc1cc2c(C)nn(Cc3ccccc3)c2c(C(N)=O)c1C | > 100 µM | > 100 µM | > 100 | > 100 µM | > 100 | > 100 µM | – | – | – | – | – | – | – | – | – | – | – | – | – | – |
| Cc1cc(NCCCCCCNc2cc(C)nc3cc(N(C)C)ccc23)c2ccc(N(C)C)cc2n1 | > 100 µM | > 100 µM | > 100 | 25 µM | > 100 | > 100 µM | – | – | – | – | – | – | – | – | – | – | – | – | – | – |
| O=C(CC(=O)C1=CNc2ccccc2S1)C(=O)Nc1ccc(Cl)cc1 | > 50 µM | > 50 µM | > 50 | > 50 µM | > 50 | > 50 µM | > 50 | – | – | – | – | – | – | – | – | – | – | – | – | – |
| COc1ccc2c(c1)[n+]([O-])c(-c1ccc(OC)c(OC)c1)c(N)[n+]2[O-] | > 100 µM | 69.4 µM | 83 | > 100 µM | > 100 | > 100 µM | > 100 | – | – | – | – | – | – | – | – | – | – | – | – | – |
| COc1ccc(/C=C/C(=O)c2ccc(O)c(CN3CCN(c4cc5c(cc4F)c(=O)c(C(=O)O)cn5C4CC4)CC3)c2)cc1 | > 100 µM | > 100 µM | > 100 | 43.2 µM | > 100 | – | > 100 | 1.47 | > 100 | 0.456 | > 100 | 2.19 | 13 | 3.75 | 2.32 | 1.72 | 1.57 | 2.56 | 1.38 | – |
| COc1ccc2c(=O)cc(-c3ccncc3)oc2c1OC | 91.7 µM | 93.1 µM | 56.8 | > 100 µM | > 100 | 67.6 µM | – | – | > 100 | – | > 100 | – | > 100 | – | – | – | – | – | – | – |
| COc1cc2ccccc2oc1=O | > 100 µM | > 100 µM | > 100 | – | > 100 | > 100 µM | > 100 | – | > 100 | – | > 100 | – | > 100 | – | – | – | – | – | – | – |
| O=c1c2ccccc2c(=O)n2n1CC=CC2 | > 100 µM | > 100 µM | > 100 | > 100 µM | > 100 | > 100 µM | > 100 | – | – | – | – | – | – | – | – | – | – | – | – | – |
| COc1cccc2c1ccc1nc3cccc(C(=O)N[C@H](C)CN(C)C)c3nc12 | 0.916 µM | 1.51 µM | 0.342 | 1.89 µM | 0.694 | – | – | 0.0735 | 3.71 | 0.0341 | 1.58 | 0.178 | 3.25 | – | 0.0654 | 0.221 | 0.125 | 0.144 | 0.039 | – |
| Clc1ccc(N=Nc2nc3ccccc3nc2N=Nc2ccc(Cl)cc2Cl)c(Cl)c1 | > 100 µM | > 100 µM | – | – | > 100 | > 100 µM | > 100 | – | – | – | – | – | – | – | – | – | – | – | – | – |
| CCN(CC)CCOc1ccc(CCc2cc(OC)c(OC)c(OC)c2)cc1 | > 100 µM | > 100 µM | 29.7 | – | 46.8 | > 100 µM | > 100 | – | – | – | – | – | – | – | – | – | – | – | – | – |
| COc1cc([C@@H]2c3cc4c(cc3[C@@H](OC(=O)c3ccc(N)cc3)C3COC(=O)[C@@H]32)OCO4)cc(OC)c1O (stereo partly specified) | > 95 µM | > 95 µM | 16.7 | 20.7 µM | > 95 | 34.5 µM | 33.6 | – | – | – | – | – | – | – | – | – | – | – | – | – |
| O=C1C2C3C=C4c5ccccc5N(c5ccccc5)C4(C2C(=O)N1c1ccc(Cl)cc1)[C@H]1C(=O)N(c2ccc(Cl)cc2)C(=O)[C@@H]31 (stereo partly specified) | – | – | > 100 | > 100 µM | > 100 | > 100 µM | > 100 | – | – | – | – | – | – | – | – | – | – | – | – | – |
| c1ccc(C(c2ccccc2)c2cccnc2)cc1 | > 100 µM | > 100 µM | > 100 | > 100 µM | > 100 | > 100 µM | > 100 | – | – | – | – | – | – | – | – | – | – | – | – | – |
| COC(=O)/C(=N\NC(=O)C[N+](C)(C)C)C(C(=O)OC)C(=O)C(=O)Nc1ccccc1C(N)=O (stereo unspecified) | > 100 µM | > 100 µM | > 100 | > 100 µM | > 100 | > 100 µM | > 100 | – | – | – | – | – | – | – | – | – | – | – | – | – |
| O=C(NC(=O)c1cn(CCN(CCO)C(=O)NCCCCCCNC(=O)N(CCO)CCn2cc(C(=O)NC(=O)OCc3ccccc3)c(=O)[nH]c2=O)c(=O)[nH]c1=O)OCc1ccccc1 | – | > 100 µM | > 100 | > 100 µM | > 100 | > 100 µM | – | – | – | – | – | – | – | – | – | – | – | – | – | – |
| CN1CCN(CCOc2ccc(-c3cnc4c(-c5ccc(C(F)(F)F)cc5)cnn4c3)cc2)CC1 | 3.44 µM | 3.11 µM | 3.03 | – | 3.27 | 2.65 µM | – | 1.59 | 2.93 | 1.21 | 2.86 | 1.5 | 2.95 | – | 1.7 | 1.68 | 1.63 | – | 1.76 | 1.34 |
| COC1/C=C/C(C)C(C(C)C(OC)C(C)CCC(=O)C(C)C(C/C=C/N(C)C=O)OC)OC(=O)/C=C/C=C(\C)CC(OC)CC2=CC(=O)O[C@H](C2)C(C)C(OC)CC(OC)/C=C/C(C)C(OC)C1 (stereo partly specified) | 0.485 µM and 0.612 µM | 0.298 µM and 0.0326 µM | – | 0.229 µM and 0.0297 µM | 6.95 | 0.0943 µM and 0.0265 µM | 0.129 | 0.123 | – | – | – | 0.0114 | 0.0584 | 0.0215 | 0.04 | 0.0413 | 0.113 | 0.0382 | 0.0198 | 0.0294 |
| Cc1ccc(SSc2ccc(C)cc2C(=O)O)c(C(=O)O)c1 | > 100 µM | > 100 µM | > 100 | > 100 µM | > 100 | > 100 µM | > 100 | – | – | – | – | – | – | – | – | – | – | – | – | – |
| N.N.N.N.N.[Cl-].[Co+3].c1ccc(-c2nn[n-]n2)cc1 | > 100 µM | > 100 µM | > 100 | > 100 µM | > 100 | > 100 µM | > 100 | – | – | – | – | – | – | > 100 | > 100 | > 100 | > 100 | > 100 | > 100 | > 100 |
